In PubChem BioAssay AID330 (DTP/NCI, 2004) one finds T/C data, which are given here for 19 compounds.

For this test, the system named is P388 leukemia ip, CD2F1 mice, survival T/C. Nature of the test: NCI In Vivo Anticancer Drug Screen. Data for tumor model P388 Leukemia (intraperitoneal) in CD2F1 (CDF1) mice. The conditions noted are these: endpoint: median survival time, higher = longer survival. In outline:
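Mice carrying the transplanted tumor received test compound or vehicle. Survival was recorded in each group, and the value is the treated-group measurement divided by that of the vehicle-treated control group.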

Where [1] appears, read: dose: 50.0 mg/kg/injection, schedule: Q01DX005 (ip), vehicle: Klucel (hydroxypropylcellulose) (HPC).
Setting [2] is: dose: 100.0 mg/kg/injection, schedule: Q01DX005 (ip), vehicle: Klucel (hydroxypropylcellulose) (HPC).
The mark [3] stands for this setting: dose: 200.0 mg/kg/injection, schedule: Q01DX005 (ip), vehicle: Klucel (hydroxypropylcellulose) (HPC).
Setting [4] is: dose: 60.0 mg/kg/injection, schedule: Q01DX005 (ip), vehicle: saline with Tween-80.
Where [5] appears, read: dose: 12.5 mg/kg/injection, schedule: Q01DX009 (ip), vehicle: saline with Tween-80.
Where [6] appears, read: dose: 25.0 mg/kg/injection, schedule: Q01DX009 (ip), vehicle: saline with Tween-80.
The mark [7] stands for this setting: dose: 50.0 mg/kg/injection, schedule: Q01DX009 (ip), vehicle: saline with Tween-80.
Where [8] appears, read: dose: 15.0 mg/kg/injection, schedule: Q01DX005 (ip), vehicle: saline with Tween-80.
The mark [9] stands for this setting: dose: 100.0 mg/kg/injection, schedule: Q01DX009 (ip), vehicle: saline with Tween-80.
The mark [10] stands for this setting: dose: 200.0 mg/kg/injection, schedule: Q01DX009 (ip), vehicle: saline with Tween-80.

“And” between values parts separate entries of the source, which are not always exact repeats. Equal values may be shown once. Inconclusive results and toxic doses are left out. Peptide text beside a SMILES is read from it. * marks the point of attachment. Cbz = O=C(OCc1ccccc1)*

For the compound `Cc1ccc(C(=O)C2C(=O)C(=O)OC2C2OC(=O)C(=O)C2C(=O)c2ccc(C)cc2)cc1` (stereo not drawn), the T/C was 101 % of control (dose: 60.0 mg/kg/injection, schedule: Q01DX005 (ip), vehicle: saline + Tween-80 + alcohol); 104 % of control (dose: 120.0 mg/kg/injection, schedule: Q01DX005 (ip), vehicle: saline + Tween-80 + alcohol); 102 % of control (dose: 240.0 mg/kg/injection, schedule: Q01DX005 (ip), vehicle: saline + Tween-80 + alcohol).
`c1ccc2c(c1)cnc1ccccc12`: the T/C by setting is: under setting [1], 97 % of control; under setting [2], 104 % of control; under setting [3], 104 % of control.
Take `COc1cc(C(Nc2ncccn2)c2cc3c(cc2OC(C)=O)OCO3)cc(OC)c1OC` (stereo not drawn): the T/C is, setting by setting: under setting [4], 98 % of control; (dose: 120.0 mg/kg/injection, schedule: Q01DX005 (ip), vehicle: saline with Tween-80) 98 % of control; (dose: 240.0 mg/kg/injection, schedule: Q01DX005 (ip), vehicle: saline with Tween-80) 95 % of control.
Regarding `CCCc1cccc2c3c([nH]c12)C(CC)(CC(=O)O)CCC3` (stereo not drawn), the T/C by setting is: under setting [5], 97 % of control; under setting [6], 106 % of control; under setting [7], 98 % of control and 97 % of control.
Take `CCCCCCCCCCCCOCC[N+](CCO)(CCO)Cc1ccccc1`: the T/C by setting is: (dose: 0.25 mg/kg/injection, schedule: Q01DX009 (ip), vehicle: saline) 100 % of control; (dose: 0.5 mg/kg/injection, schedule: Q01DX009 (ip), vehicle: saline) 100 % of control; (dose: 1.0 mg/kg/injection, schedule: Q01DX009 (ip), vehicle: saline) 100 % of control.
Regarding `CC(=O)Oc1ccc(OC(C)=O)c2c1CC1OC1C2` (stereo not drawn), the T/C is 100 % of control (dose: 3.13 mg/kg/injection, schedule: Q01DX009 (ip), vehicle: water); 98 % of control (dose: 6.25 mg/kg/injection, schedule: Q01DX009 (ip), vehicle: water); 100 % of control (dose: 12.5 mg/kg/injection, schedule: Q01DX009 (ip), vehicle: water); 90 % of control (dose: 25.0 mg/kg/injection, schedule: Q01DX009 (ip), vehicle: water); 100 % of control (dose: 50.0 mg/kg/injection, schedule: Q01DX009 (ip), vehicle: water); 111 % of control (dose: 100.0 mg/kg/injection, schedule: Q01DX009 (ip), vehicle: distilled water + Tween-80). In addition, the T/C is, setting by setting: (dose: 200.0 mg/kg/injection, schedule: Q01DX009 (ip), vehicle: distilled water + Tween-80) 111 % of control; (dose: 400.0 mg/kg/injection, schedule: Q01DX009 (ip), vehicle: distilled water + Tween-80) 100 % of control.
Consider `O=c1oc2ccccc2c(O)c1C=Nc1ccccc1`, for which the T/C runs as follows: under setting [5], 89 % of control; under setting [6], 88 % of control.
On to `CC(NNC(=S)N1CCCCCC1)c1cc2ccccc2cn1` (stereo not drawn), for which the T/C by setting is: (dose: 50.0 mg/kg/injection, schedule: Q01DX005 (ip), vehicle: saline with Tween-80) 108 % of control and 98 % of control; (dose: 100.0 mg/kg/injection, schedule: Q01DX005 (ip), vehicle: saline with Tween-80) 112 % of control; (dose: 200.0 mg/kg/injection, schedule: Q01DX005 (ip), vehicle: saline with Tween-80) 123 % of control; (dose: 400.0 mg/kg/injection, schedule: Q01DX005 (ip), vehicle: saline with Tween-80) 153 % of control.
In the case of `CCCCOP(=O)(O)OCCCC`, the T/C was 111 % of control (dose: 100.0 mg/kg/injection, schedule: Q01DX001 (ip), vehicle: Klucel (hydroxypropylcellulose) (HPC)) and 105 % of control (dose: 200.0 mg/kg/injection, schedule: Q01DX001 (ip), vehicle: Klucel (hydroxypropylcellulose) (HPC)).
Turning to `N#CN(Cc1ccccc1)C(c1ccccc1)(c1ccccc1)c1ccccc1.[I][Sn]([c]1ccccc1)([c]1ccccc1)[c]1ccccc1`, the T/C (dose: 3.12 mg/kg/injection, schedule: Q01DX005 (ip), vehicle: saline with Tween-80) was 98 % of control and the T/C (dose: 6.25 mg/kg/injection, schedule: Q01DX005 (ip), vehicle: saline with Tween-80) was 92 % of control.
Turning to `CCCCCCCCCCCCCCCCc1c(C(=O)OC)nc(N)[nH]c1=O`, the T/C is, setting by setting: (dose: 3.75 mg/kg/injection, schedule: Q01DX005 (ip), vehicle: saline with Tween-80) 99 % of control; (dose: 7.5 mg/kg/injection, schedule: Q01DX005 (ip), vehicle: saline with Tween-80) 100 % of control; under setting [8], 103 % of control.
Regarding `Nc1nc(-c2cc(-c3cccs3)nc(N)n2)cc(-c2cccs2)n1`, the T/C is 97 % of control (dose: 60.0 mg/kg/injection, schedule: Q01DX005 (ip), vehicle: saline) and 100 % of control (dose: 120.0 mg/kg/injection, schedule: Q01DX005 (ip), vehicle: saline).
In the case of `CCCCCCCCCCCCCOC(=O)c1ccc(O)cc1`, the T/C by setting is: under setting [7], 98 % of control; under setting [9], 94 % of control; under setting [10], 88 % of control.
As to `C(#CP(C#Cc1ccccc1)C#Cc1ccccc1)c1ccccc1`, the T/C reads like this: under setting [7], 103 % of control; under setting [9], 92 % of control; under setting [10], 94 % of control; (dose: 400.0 mg/kg/injection, schedule: Q01DX009 (ip), vehicle: saline with Tween-80) 86 % of control.
With `CC1CN1P(=O)(OCCCl)N1CC1C` (stereo not drawn), the T/C (dose: 44.0 mg/kg/injection, schedule: Q04DX003 (ip), vehicle: saline) was 113 % of control; the T/C (dose: 50.0 mg/kg/injection, schedule: Q01DX009 (ip), vehicle: saline) is 120 % of control; the T/C (dose: 66.0 mg/kg/injection, schedule: Q04DX003 (ip), vehicle: saline) was 113 % of control; the T/C (dose: 100.0 mg/kg/injection, schedule: Q01DX009 (ip), vehicle: saline) was 120 % of control; the T/C (dose: 100.0 mg/kg/injection, schedule: Q04DX003 (ip), vehicle: saline) is 118 % of control; the T/C (dose: 150.0 mg/kg/injection, schedule: Q04DX003 (ip), vehicle: saline) is 86 % of control.
On to `COC(=O)C(CO)NC(=O)C(NC(=O)OCc1ccccc1)C(C)O` (stereo not drawn) (Cbz-Thr-Ser-OMe; configuration not given here), for which the T/C reads like this: under setting [1], 118 % of control; under setting [2], 101 % of control; under setting [3], 108 % of control.
Take `COc1cc(C2C(C(C)=O)=C(C)Oc3cc4c(cc32)OCO4)cc(OC)c1O` (stereo not drawn): the T/C is 91 % of control under setting [8]; 91 % of control (dose: 30.0 mg/kg/injection, schedule: Q01DX005 (ip), vehicle: saline with Tween-80); 86 % of control and 90 % of control under setting [4].
In the case of `O=C1NN2CCCN=C2c2cnccc21`, the T/C is 110 % of control (dose: 50.0 mg/kg/injection, schedule: Q01DX005 (ip), vehicle: saline); 97 % of control (dose: 100.0 mg/kg/injection, schedule: Q01DX005 (ip), vehicle: saline); 89 % of control (dose: 200.0 mg/kg/injection, schedule: Q01DX005 (ip), vehicle: saline).
In the case of `Cc1nnsc1C(=O)NCc1c(F)cccc1Cl`, the T/C was 97 % of control under setting [1], 99 % of control under setting [2] and 98 % of control under setting [3].
